From ChEMBL document CHEMBL5291721, “A preclinical secondary pharmacology resource illuminates target-adverse drug reaction associations of marketed drugs” (Nat Commun, 2023)

Key:
[1] = biological target: 5-hydroxytryptamine receptor 2A (Homo sapiens, UniProt P28223); assay type: functional, cell-based
[2] = biological target: T1, Prostaglandin G/H synthase 1 (Rattus norvegicus, UniProt Q63921); assay type: functional
T1 sequence (Q63921 whole entry): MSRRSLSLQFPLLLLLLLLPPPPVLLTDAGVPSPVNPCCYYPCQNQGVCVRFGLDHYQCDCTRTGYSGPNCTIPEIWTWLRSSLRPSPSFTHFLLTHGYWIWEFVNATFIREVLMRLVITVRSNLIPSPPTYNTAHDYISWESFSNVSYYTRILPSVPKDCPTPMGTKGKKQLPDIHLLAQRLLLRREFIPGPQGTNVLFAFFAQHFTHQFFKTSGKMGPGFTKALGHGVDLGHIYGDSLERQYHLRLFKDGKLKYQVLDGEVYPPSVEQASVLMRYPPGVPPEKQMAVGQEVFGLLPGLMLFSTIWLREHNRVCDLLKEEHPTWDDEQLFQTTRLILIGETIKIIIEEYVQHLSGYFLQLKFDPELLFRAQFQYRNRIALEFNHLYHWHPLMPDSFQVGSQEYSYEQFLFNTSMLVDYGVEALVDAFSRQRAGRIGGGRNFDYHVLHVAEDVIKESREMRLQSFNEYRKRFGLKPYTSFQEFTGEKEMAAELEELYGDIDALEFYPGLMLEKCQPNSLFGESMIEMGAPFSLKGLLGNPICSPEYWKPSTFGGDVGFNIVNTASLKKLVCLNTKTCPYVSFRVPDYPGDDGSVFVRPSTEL

[3] = biological target: Sodium-dependent serotonin transporter (Homo sapiens, UniProt P31645)
Chain of Sodium-dependent serotonin transporter (P31645 whole entry): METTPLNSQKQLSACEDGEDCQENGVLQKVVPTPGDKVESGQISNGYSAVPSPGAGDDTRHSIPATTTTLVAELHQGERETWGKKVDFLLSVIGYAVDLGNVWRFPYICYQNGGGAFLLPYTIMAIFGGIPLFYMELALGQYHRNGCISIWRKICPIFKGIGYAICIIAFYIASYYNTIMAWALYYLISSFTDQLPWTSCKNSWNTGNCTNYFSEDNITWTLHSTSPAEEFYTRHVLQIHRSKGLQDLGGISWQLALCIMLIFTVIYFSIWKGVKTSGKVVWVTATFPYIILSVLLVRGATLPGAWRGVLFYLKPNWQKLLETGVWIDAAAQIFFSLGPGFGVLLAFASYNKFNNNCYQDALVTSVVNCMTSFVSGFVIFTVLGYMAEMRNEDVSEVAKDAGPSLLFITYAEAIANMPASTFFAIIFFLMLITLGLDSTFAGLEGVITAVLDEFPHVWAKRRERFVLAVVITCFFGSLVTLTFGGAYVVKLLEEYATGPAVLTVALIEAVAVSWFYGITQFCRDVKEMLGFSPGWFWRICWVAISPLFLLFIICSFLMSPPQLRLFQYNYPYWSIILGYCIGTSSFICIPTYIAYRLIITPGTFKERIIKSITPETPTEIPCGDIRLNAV

[4] = biological target: Glutamate receptor ionotropic, NMDA 1 (Rattus norvegicus, UniProt P35439)
[5] = biological target: T2, Muscarinic acetylcholine receptor M2 (Homo sapiens, UniProt P08172); assay type: functional, cell-based
T2 sequence (P08172 whole entry): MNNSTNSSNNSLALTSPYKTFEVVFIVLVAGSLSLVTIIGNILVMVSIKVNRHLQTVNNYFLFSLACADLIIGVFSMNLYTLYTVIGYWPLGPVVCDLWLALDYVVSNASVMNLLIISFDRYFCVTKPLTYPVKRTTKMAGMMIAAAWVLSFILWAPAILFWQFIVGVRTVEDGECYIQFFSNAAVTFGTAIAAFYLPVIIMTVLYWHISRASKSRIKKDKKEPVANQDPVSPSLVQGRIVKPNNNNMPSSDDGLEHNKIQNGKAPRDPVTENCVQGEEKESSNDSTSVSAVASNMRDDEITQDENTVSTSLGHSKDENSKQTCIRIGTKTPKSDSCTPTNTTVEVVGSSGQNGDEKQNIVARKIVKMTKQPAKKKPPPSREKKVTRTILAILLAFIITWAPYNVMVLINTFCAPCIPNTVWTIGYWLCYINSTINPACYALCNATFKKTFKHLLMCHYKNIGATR

[6] = biological target: 3',5'-cyclic-AMP phosphodiesterase 4D (Homo sapiens, UniProt Q08499); assay type: functional
Chain of 3',5'-cyclic-AMP phosphodiesterase 4D (Q08499 whole entry): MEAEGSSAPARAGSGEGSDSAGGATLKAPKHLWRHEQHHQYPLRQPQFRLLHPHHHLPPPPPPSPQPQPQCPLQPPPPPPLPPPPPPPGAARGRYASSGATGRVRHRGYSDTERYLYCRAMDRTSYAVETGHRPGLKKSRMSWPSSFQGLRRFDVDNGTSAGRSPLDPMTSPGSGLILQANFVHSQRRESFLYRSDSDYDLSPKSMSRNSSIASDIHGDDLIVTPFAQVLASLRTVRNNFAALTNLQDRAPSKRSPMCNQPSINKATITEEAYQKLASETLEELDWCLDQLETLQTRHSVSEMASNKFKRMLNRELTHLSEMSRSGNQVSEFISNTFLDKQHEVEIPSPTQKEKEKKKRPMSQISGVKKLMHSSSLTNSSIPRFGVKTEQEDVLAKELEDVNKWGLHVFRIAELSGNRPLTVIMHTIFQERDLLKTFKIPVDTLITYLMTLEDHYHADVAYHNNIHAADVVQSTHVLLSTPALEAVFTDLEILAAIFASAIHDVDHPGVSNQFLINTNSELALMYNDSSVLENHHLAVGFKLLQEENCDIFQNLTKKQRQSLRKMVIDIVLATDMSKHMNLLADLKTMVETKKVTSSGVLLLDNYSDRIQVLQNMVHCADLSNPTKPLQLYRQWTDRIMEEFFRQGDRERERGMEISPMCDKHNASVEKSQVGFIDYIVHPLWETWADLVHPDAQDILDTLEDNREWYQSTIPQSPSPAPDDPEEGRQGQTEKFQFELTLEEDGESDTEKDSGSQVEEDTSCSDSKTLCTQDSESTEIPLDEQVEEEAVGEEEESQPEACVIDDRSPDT

Histamine H1 receptor = Histamine H1 receptor (Homo sapiens, UniProt P35367)
Chain of Histamine H1 receptor (P35367 whole entry): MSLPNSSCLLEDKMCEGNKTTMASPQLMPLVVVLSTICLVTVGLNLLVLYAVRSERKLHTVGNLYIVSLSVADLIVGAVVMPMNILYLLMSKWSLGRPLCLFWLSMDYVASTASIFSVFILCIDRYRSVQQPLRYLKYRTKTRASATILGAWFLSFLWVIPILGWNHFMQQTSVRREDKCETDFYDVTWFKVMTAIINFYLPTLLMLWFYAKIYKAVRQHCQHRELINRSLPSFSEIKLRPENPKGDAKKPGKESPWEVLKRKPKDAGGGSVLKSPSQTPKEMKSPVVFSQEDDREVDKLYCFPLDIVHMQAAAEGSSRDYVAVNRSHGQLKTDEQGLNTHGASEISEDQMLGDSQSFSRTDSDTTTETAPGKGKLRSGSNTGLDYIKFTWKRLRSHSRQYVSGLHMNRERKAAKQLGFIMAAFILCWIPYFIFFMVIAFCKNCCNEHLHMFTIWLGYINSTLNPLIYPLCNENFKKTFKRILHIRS

Vasopressin V1a receptor = Vasopressin V1a receptor (Homo sapiens, UniProt P37288)
[7] = biological target: T3, Neuropeptide Y receptor type 1 (Homo sapiens, UniProt P25929)
T3 sequence (P25929 whole entry): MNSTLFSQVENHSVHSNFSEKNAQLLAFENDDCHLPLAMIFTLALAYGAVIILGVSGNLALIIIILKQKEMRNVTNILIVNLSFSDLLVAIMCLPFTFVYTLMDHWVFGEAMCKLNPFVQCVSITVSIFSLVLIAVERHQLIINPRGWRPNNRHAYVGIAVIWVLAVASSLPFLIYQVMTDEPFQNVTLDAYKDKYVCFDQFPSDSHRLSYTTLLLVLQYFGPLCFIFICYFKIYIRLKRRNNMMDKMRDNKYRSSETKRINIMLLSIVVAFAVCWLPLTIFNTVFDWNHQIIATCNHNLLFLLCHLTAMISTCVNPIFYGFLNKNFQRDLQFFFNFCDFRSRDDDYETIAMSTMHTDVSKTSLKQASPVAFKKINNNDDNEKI

[8] = biological target: Beta-1 adrenergic receptor (Homo sapiens, UniProt P08588); assay type: functional
Chain of Beta-1 adrenergic receptor (P08588 whole entry): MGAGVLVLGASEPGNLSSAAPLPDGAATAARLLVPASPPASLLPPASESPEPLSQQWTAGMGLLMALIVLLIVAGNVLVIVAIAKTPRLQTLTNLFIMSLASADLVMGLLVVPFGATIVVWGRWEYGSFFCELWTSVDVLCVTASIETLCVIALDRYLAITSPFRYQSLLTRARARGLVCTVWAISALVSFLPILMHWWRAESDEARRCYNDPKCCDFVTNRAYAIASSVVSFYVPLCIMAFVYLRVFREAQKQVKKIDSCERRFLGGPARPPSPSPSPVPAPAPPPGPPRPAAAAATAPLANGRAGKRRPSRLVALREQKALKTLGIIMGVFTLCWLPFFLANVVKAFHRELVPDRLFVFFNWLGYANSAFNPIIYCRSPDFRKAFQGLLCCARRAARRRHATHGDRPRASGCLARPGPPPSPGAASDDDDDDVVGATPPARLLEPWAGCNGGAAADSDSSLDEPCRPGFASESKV

[9] = biological target: T4, 5-hydroxytryptamine receptor 2C (Homo sapiens, UniProt P28335)
T4 sequence (P28335 whole entry): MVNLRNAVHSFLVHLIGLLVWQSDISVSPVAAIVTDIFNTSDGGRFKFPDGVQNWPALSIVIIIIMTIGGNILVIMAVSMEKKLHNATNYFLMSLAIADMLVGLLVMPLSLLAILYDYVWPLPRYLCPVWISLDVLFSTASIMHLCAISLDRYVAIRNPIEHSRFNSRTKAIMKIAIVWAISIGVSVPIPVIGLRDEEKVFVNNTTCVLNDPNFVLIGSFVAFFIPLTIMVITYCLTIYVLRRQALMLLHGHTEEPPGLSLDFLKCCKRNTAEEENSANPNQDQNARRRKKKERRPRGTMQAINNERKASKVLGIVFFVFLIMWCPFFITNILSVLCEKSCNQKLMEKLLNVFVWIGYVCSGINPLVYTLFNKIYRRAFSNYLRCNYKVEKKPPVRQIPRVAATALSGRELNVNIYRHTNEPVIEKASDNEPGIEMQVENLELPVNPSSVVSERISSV

Motilin receptor = Motilin receptor (Homo sapiens, UniProt O43193)
Chain of Motilin receptor (O43193 whole entry): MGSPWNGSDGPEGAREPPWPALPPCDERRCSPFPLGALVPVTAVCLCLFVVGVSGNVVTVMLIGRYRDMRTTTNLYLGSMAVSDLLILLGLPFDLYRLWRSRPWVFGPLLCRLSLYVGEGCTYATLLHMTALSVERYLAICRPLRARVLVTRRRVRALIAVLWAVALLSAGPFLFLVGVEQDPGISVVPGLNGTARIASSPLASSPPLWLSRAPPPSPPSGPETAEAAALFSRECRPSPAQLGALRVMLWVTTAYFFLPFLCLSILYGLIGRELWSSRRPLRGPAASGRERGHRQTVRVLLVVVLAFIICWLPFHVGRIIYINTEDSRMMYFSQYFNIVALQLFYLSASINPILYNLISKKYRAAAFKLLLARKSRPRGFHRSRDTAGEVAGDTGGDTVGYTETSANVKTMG

Adenosine receptor A2a = Adenosine receptor A2a (Homo sapiens, UniProt P29274)
Chain of Adenosine receptor A2a (P29274 whole entry): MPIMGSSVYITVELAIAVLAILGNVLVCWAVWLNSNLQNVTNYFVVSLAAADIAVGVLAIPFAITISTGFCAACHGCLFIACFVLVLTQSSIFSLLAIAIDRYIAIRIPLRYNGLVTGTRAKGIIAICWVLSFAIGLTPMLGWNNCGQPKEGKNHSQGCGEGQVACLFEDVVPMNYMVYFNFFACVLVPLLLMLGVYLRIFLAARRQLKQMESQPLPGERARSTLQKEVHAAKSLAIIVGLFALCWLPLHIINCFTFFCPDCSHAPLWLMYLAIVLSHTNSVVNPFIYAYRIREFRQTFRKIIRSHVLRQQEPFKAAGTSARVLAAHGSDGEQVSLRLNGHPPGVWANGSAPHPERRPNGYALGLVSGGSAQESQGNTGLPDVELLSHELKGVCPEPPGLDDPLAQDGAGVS

Mu-type opioid receptor = Mu-type opioid receptor (Homo sapiens, UniProt P35372); assay: biochemical; assay type: functional
Chain of Mu-type opioid receptor (P35372 whole entry): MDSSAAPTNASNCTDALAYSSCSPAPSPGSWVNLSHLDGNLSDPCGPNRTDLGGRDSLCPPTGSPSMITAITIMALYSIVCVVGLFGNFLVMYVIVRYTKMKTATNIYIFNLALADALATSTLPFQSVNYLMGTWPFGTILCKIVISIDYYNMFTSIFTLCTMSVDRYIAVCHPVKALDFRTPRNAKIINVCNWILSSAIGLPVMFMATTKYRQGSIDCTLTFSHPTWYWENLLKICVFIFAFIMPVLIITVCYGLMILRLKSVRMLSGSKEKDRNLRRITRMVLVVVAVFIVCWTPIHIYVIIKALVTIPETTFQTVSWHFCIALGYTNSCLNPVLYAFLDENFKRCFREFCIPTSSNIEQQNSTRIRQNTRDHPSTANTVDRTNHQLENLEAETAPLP

[10] = biological target: Neuronal acetylcholine receptor subunit alpha-4 (Homo sapiens, UniProt P43681)
[11] = biological target: cGMP-inhibited 3',5'-cyclic phosphodiesterase 3A (Homo sapiens, UniProt Q14432); assay type: functional
[12] = biological target: Sodium-dependent noradrenaline transporter (Homo sapiens, UniProt P23975)
Chain of Sodium-dependent noradrenaline transporter (P23975 whole entry): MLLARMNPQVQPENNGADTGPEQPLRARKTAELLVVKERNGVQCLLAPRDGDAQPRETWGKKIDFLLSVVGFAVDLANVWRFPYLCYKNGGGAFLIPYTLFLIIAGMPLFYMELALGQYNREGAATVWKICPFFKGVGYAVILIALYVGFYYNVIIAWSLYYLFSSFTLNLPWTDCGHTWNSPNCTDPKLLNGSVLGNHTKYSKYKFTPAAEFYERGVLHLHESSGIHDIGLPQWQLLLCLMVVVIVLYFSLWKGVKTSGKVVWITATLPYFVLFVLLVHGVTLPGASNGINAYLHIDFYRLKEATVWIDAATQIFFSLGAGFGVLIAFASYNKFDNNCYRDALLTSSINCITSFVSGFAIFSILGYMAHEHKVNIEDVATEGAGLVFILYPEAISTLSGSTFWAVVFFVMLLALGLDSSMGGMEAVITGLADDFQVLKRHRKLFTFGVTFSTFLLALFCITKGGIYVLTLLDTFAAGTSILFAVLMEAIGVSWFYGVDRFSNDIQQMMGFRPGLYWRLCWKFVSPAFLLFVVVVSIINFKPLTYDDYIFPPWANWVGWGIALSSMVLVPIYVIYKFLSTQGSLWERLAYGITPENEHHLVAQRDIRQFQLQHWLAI
Note: assay procedure not described here.

Chain of 5-hydroxytryptamine receptor 2A (P28223 whole entry): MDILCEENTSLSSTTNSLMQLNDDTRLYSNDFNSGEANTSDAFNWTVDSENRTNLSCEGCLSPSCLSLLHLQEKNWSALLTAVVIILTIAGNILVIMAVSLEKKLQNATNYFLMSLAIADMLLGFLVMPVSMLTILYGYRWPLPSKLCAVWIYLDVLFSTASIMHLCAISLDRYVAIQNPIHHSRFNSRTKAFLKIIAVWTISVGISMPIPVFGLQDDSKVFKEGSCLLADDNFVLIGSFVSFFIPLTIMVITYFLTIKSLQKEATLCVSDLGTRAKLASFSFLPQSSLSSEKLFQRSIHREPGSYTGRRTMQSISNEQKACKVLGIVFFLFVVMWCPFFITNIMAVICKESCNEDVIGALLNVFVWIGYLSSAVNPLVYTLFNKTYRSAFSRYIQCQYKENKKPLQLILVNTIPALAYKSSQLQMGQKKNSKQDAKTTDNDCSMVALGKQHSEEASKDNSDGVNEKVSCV

Row | SMILES | AC50 [1] [µM] | AC50 [2] [µM] | AC50 [3] [µM] | AC50 [4] [µM] | AC50 [5] [µM] | AC50 [6] [µM] | AC50 (Histamine H1 receptor) [µM] | AC50 (Vasopressin V1a receptor) [µM] | AC50 [7] [µM] | AC50 [8] [µM] | AC50 [9] [µM] | AC50 (Motilin receptor) [µM] | AC50 (Adenosine receptor A2a) [µM] | AC50 (Mu-type opioid receptor) [µM] | AC50 [10] [µM] | AC50 [11] [µM] | AC50 [12] [µM]
1 | O=C(O)CCCCCCNC1c2ccccc2CCc2ccccc21 [AMINEPTINE] | > 30 | > 30 | > 30 | > 30 | > 30 | > 30 | > 30 | > 30 | > 30 | > 30 | 0.17 | > 30 | > 30 | > 30 | > 30 | > 30 | > 30
2 | COc1ccc(-c2ccc3cc(C(=O)O)ccc3c2)cc1C12CC3CC(CC(C3)C1)C2 | > 30 | > 30 | > 30 | > 30 | > 30 | > 30 | > 30 | > 30 | > 30 | > 30 | > 30 | > 30 | > 30 | > 30 | > 30 | > 30 | > 30
3 | CCN(CC)C(=O)N[C@H]1C[C@@H]2c3cccc4[nH]cc(c34)C[C@H]2N(C)C1 [TERGURIDE] | 0.48 | > 30 | > 30 | > 30 | > 30 | > 30 | 2.1 | > 30 | > 30 | 3.2 | 0.21 | > 30 | > 30 | > 30 | > 30 | > 30 | > 30
4 | COc1ccc(CCN(C)CCCC(C#N)(c2cc(OC)c(OC)c(OC)c2)C(C)C)cc1OC (centres undefined) [GALLOPAMIL] | > 30 | > 30 | 3 | > 30 | > 30 | 9.2 | > 30 | > 30 | > 30 | > 30 | 5 | > 30 | > 30 | > 30 | > 30 | > 30 | > 30
5 | CCN1CCN(C(=O)N[C@@H](C(=O)N[C@@H]2C(=O)N3C(C(=O)O)=C(CSc4nnnn4C)CS[C@H]23)c2ccc(O)cc2)C(=O)C1=O [CEFOPERAZONE] | > 30 | > 30 | > 30 | > 30 | > 30 | > 30 | > 30 | > 30 | > 30 | > 30 | > 30 | > 30 | > 30 | > 30 | > 30 | 9.5 | > 30
6 | CCOC(=O)[N-]c1cn(N2CCOCC2)n[o+]1 [MOLSIDOMINE] | > 30 | 24 | > 30 | > 30 | > 30 | > 30 | > 30 | > 30 | > 30 | > 30 | > 30 | > 30 | > 30 | > 30 | > 30 | > 30 | > 30
7 | CN1C(=O)C(O)N=C(c2ccccc2Cl)c2cc(Cl)ccc21 (centres undefined) [LORMETAZEPAM] | > 30 | > 10 | > 30 | > 30 | 17 | 5.6 | > 30 | > 30 | > 30 | > 30 | > 30 | > 30 | > 30 | > 30 | > 30 | > 10 | > 30
8 | CC(C)(C)C(=O)Oc1ccc(S(=O)(=O)Nc2ccccc2C(=O)NCC(=O)O)cc1 | > 30 | > 30 | > 10 | > 30 | > 30 | > 30 | > 30 | > 30 | > 30 | > 30 | > 30 | > 30 | > 30 | > 30 | > 30 | > 30 | > 30
9 | CCCC(C)C1(CC)C(=O)NC(=O)NC1=O (centres undefined) [PENTOBARBITAL] | > 10 | > 10 | > 10 | > 10 | > 10 | > 30 | > 30 | > 10 | > 10 | > 10 | > 30 | > 10 | > 10 | > 30 | > 10 | > 30 | > 10
10 | CCC(C(=O)O)c1ccc(N2Cc3ccccc3C2=O)cc1 (centres undefined) [INDOBUFEN] | > 30 | 0.8 | > 30 | > 30 | > 30 | > 30 | > 30 | > 30 | > 30 | > 30 | > 30 | > 30 | > 30 | > 30 | > 30 | > 30 | > 30
11 | COC(=O)C1=C(C)NC(C)=C(C(=O)OC2CCCN(Cc3ccccc3)C2)C1c1cccc([N+](=O)[O-])c1 (centres undefined) [BENIDIPINE] | > 30 | > 30 | > 30 | > 30 | > 30 | 7.1 | 27 | > 30 | > 30 | > 30 | > 30 | 3.5 | > 30 | > 30 | > 30 | 4.2 | 13
12 | C[C@H](CSC(=O)c1ccccc1)C(=O)N1C[C@@H](Sc2ccccc2)C[C@H]1C(=O)O [ZOFENOPRIL] | > 10 | > 10 | > 10 | > 10 | > 10 | > 10 | > 10 | > 10 | > 10 | > 10 | > 30 | > 10 | > 10 | > 30 | > 10 | > 30 | > 10
